Results reported in the supplement of paper PMC10307832.

Assays:
Assay in all cases: relative viability (nuclei count vs DMSO), 5 days (fraction); higher = more cells survive
IPA-3 + OSI-027 = compound: C1=CC=C2C(=C1)C=CC(=C2SSC3=C(C=CC4=CC=CC=C43)O)O [IPA-3] + COc1cccc2cc(-c3nc([C@H]4CC[C@H](C(=O)O)CC4)n4ncnc(N)c34)[nH]c12 [OSI-027] (partner 0.5 µM)
Method in brief: (§1)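 Each reported value is a median over duplicate plates. It expresses relative viability: treated-well nuclei count divided by vehicle-well nuclei count. Lung cancer cell lines in 1536-well plates were dosed by pin tool a day after seeding, alone with one drug or with a fixed anchor-drug dose plus five library-drug doses (not always all listed) in √10 steps, and nuclei were counted after 5 days.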

IPA-3 + Decitabine = compound: C1=CC=C2C(=C1)C=CC(=C2SSC3=C(C=CC4=CC=CC=C43)O)O [IPA-3] + Nc1ncn([C@H]2C[C@H](O)[C@@H](CO)O2)c(=O)n1 [Decitabine] (partner 2 µM)
Method in brief: as §1

Doramapimod + Navitoclax = compound: Cc1ccc(-n2nc(C(C)(C)C)cc2NC(=O)Nc2ccc(OCCN3CCOCC3)c3ccccc23)cc1 [Doramapimod] + CC1(C)CCC(c2ccc(Cl)cc2)=C(CN2CCN(c3ccc(C(=O)NS(=O)(=O)c4ccc(N[C@H](CCN5CCOCC5)CSc5ccccc5)c(S(=O)(=O)C(F)(F)F)c4)cc3)CC2)C1 [Navitoclax] (partner 0.5 µM)
Method in brief: as §1

Doramapimod + AZD7762 = compound: Cc1ccc(-n2nc(C(C)(C)C)cc2NC(=O)Nc2ccc(OCCN3CCOCC3)c3ccccc23)cc1 [Doramapimod] + NC(=O)Nc1cc(-c2cccc(F)c2)sc1C(=O)N[C@H]1CCCNC1 [AZD7762] (partner 0.2 µM)
Method in brief: as §1

| Cell Line | relative viability (IPA-3 + OSI-027; first compound 0.2 µM) | relative viability (IPA-3 + OSI-027; first compound 0.6325 µM) | relative viability (IPA-3 + OSI-027; first compound 2 µM) | relative viability (IPA-3 + OSI-027; first compound 6.325 µM) | relative viability (IPA-3 + OSI-027; first compound 20 µM) | relative viability (IPA-3 + Decitabine; first compound 0.2 µM) | relative viability (IPA-3 + Decitabine; first compound 0.6325 µM) | relative viability (IPA-3 + Decitabine; first compound 2 µM) | relative viability (IPA-3 + Decitabine; first compound 6.325 µM) | relative viability (IPA-3 + Decitabine; first compound 20 µM) | relative viability (Doramapimod + Navitoclax; first compound 0.02 µM) | relative viability (Doramapimod + Navitoclax; first compound 0.06325 µM) | relative viability (Doramapimod + Navitoclax; first compound 0.2 µM) | relative viability (Doramapimod + Navitoclax; first compound 0.6325 µM) | relative viability (Doramapimod + Navitoclax; first compound 2 µM) | relative viability (Doramapimod + AZD7762; first compound 0.02 µM) | relative viability (Doramapimod + AZD7762; first compound 0.06325 µM) | relative viability (Doramapimod + AZD7762; first compound 0.2 µM) | relative viability (Doramapimod + AZD7762; first compound 0.6325 µM) | relative viability (Doramapimod + AZD7762; first compound 2 µM) |
| --- | --- | --- | --- | --- | --- | --- | --- | --- | --- | --- | --- | --- | --- | --- | --- | --- | --- | --- | --- | --- |
| EMC-BAC-2 | 0.435 | 0.379 | 0.367 | 0.482 | 0.438 | 1.02 | 0.967 | 0.958 | 0.819 | 1.07 | 1.18 | 1.17 | 1.16 | 1.25 | 0.99 | 1.07 | 1.16 | 1.07 | 1.07 | 0.965 |
| NCI-H647 | 1.04 | 0.576 | 0.629 | 0.676 | 0.301 | 0.502 | 0.396 | 0.397 | 0.206 | 0.134 | 1.09 | 1.13 | 1.12 | 1.09 | 1.12 | 0.602 | 0.616 | 0.461 | 0.485 | 0.454 |
| LXF-289 | 0.909 | 0.722 | 0.696 | 0.847 | 0.911 | 0.368 | 0.368 | 0.345 | 0.37 | 0.422 | 0.954 | 1 | 0.939 | 0.903 | 0.942 | 1.07 | 1.16 | 1.14 | 1.1 | 1.12 |
| LOU-NH91 | 0.709 | 0.732 | 0.811 | 0.73 | 0.776 | 0.821 | 0.856 | 0.815 | 0.82 | 0.888 | 0.683 | 0.588 | 0.627 | 0.63 | 0.452 | 0.757 | 0.739 | 0.7 | 0.744 | 0.575 |
| NCI-H23 | 0.591 | 0.544 | 0.577 | 0.571 | 0.533 | 0.285 | 0.313 | 0.319 | 0.329 | 0.299 | 0.905 | 0.794 | 0.763 | 0.882 | 0.832 | 0.247 | 0.221 | 0.363 | 0.354 | 0.143 |
| NCI-H1993 | 0.555 | 0.556 | 0.539 | 0.556 | 0.504 | 0.611 | 0.576 | 0.643 | 0.547 | 0.615 | 0.952 | 0.749 | 0.966 | 0.918 | 0.834 | 0.751 | 0.675 | 0.608 | 0.781 | 0.557 |
| HCC-827 | 0.842 | 0.69 | 0.773 | 0.724 | 0.703 | 0.359 | 0.34 | 0.33 | 0.312 | 0.327 | 1.01 | 0.959 | 0.984 | 1 | 0.829 | 0.281 | 0.3 | 0.195 | 0.588 | 0.116 |
| NCI-H838 | 0.468 | 0.437 | 0.478 | 0.429 | 0.453 | 0.579 | 0.444 | 0.456 | 0.398 | 0.443 | 1.16 | 1.19 | 1.26 | 1.32 | 1.12 | 0.869 | 0.962 | 0.958 | 0.902 | 0.92 |
| RERF-LC-KJ | 0.668 | 0.563 | 0.58 | 0.554 | 0.619 | 0.896 | 0.639 | 0.701 | 0.704 | 0.689 | 1.09 | 1.35 | 0.858 | 0.853 | 1.01 | 0.897 | 1.15 | 0.961 | 0.703 | 0.889 |
| HCC-366 | 0.978 | 0.709 | 0.802 | 0.93 | 1.07 | 0.399 | 0.35 | 0.349 | 0.335 | 0.321 | 1.05 | 1 | 1.03 | 0.978 | 0.901 | 0.387 | 0.271 | 0.33 | 0.34 | 0.213 |
| HCC-44 | 0.516 | 0.704 | 0.489 | 0.482 | 0.484 | 0.951 | 0.943 | 0.879 | 0.924 | 0.846 | 1 | 0.986 | 0.986 | 1.14 | 0.979 | 1.06 | 1.02 | 1.04 | 1.01 | 1.07 |
| A-427 | 0.432 | 0.438 | 0.491 | 0.388 | 0.451 | 0.571 | 0.576 | 0.547 | 0.544 | 0.63 | 1.02 | 1.01 | 1.02 | – | 1.08 | 0.77 | 0.732 | 0.743 | – | 0.561 |
| NCI-H322M | 0.597 | 0.521 | 0.569 | 0.597 | 0.61 | 0.679 | 0.654 | 0.749 | 0.663 | 0.718 | 1.12 | 1.16 | 1.16 | 1.33 | 1.2 | 0.564 | 0.593 | 0.52 | 0.484 | 0.687 |
| LK-2 | 0.183 | 0.214 | 0.194 | 0.27 | 0.165 | 0.297 | 0.333 | 0.32 | 0.442 | 0.346 | 0.731 | 0.757 | 0.695 | 0.72 | 0.741 | 0.347 | 0.216 | 0.298 | 0.258 | 0.165 |
| NCI-H596 | 0.761 | 0.681 | 0.757 | 0.668 | 0.865 | 1.09 | 0.984 | 1.06 | 0.963 | 1.08 | 0.927 | 0.809 | 0.933 | 1.01 | 0.876 | 1.27 | 1.08 | 1.13 | 1.31 | 1.1 |
| NCI-H1793 | 0.286 | 0.136 | 0.291 | 0.314 | 0.323 | 0.545 | 0.495 | 0.566 | 0.442 | 0.529 | 0.545 | 0.303 | 0.378 | 0.416 | 0.502 | 0.381 | 0.326 | 0.523 | 0.321 | 0.243 |
